Source: patent US10213407B2, “Compounds and methods for inhibiting production of trimethylamine” (The Procter & Gamble Company, priority 2015, dated 2019)

What follows are molecules tested against Ec YeaWX lysate (Escherichia coli (strain K12), UniProt P0ABR7) (assay: Inhibition of formation of TMA from carnitine in Ec YeaWX lysate (d9-carnitine to d9-TMA, LC-MS/MS)). Conditions: conversion of carnitine to TMA; Ec YeaWX lysate 2.0 mg/mL protein, 250 μM NADPH, 50 μM d9-carnitine chloride, 37° C., two hours; read-out: TMA Inhibition (IC50, mol/L).
Format: biochemical
From the text: EXAMPLE 3 provides an exemplary assay for identifying and characterizing compounds from Formula (I), or Formula (II), that inhibit the formation of TMA from carnitine.
Escherichia coli BL21*DE3::pET30a-Ec yeaWX #1 (Ec YeaWX) strain was generated as described below. The contiguous Escherichia coli coding sequence yeaW (equivalent to uniprot ID P0ABR7.1 (YeaW) (SEQ ID NO: 2)) and yeaX (equivalent to uniprot ID P76254.1 (YeaX) (SEQ ID NO: 3)) were PCR amplified from Escherichia coli strain K-12 substr. BW25113 genomic DNA. PCR primers (YeaW_Nde I_fwd2-SEQ ID NO: 4; YeaX_rev2-SEQ ID NO: 5) were designed to create a 5′ NdeI restriction site including the ATG start codon of yeaW and create a PstI restriction site just 3′ of the yeaX TAG stop codon.
The amplicon was restricted and cloned into the NdeI and PstI sites of the plasmid pET30a downstream of the inducible T7 promoter. A blast search of the resulting cloned amplicon DNA sequence (SEQ ID NO: 1) corresponded to nucleotide range 1884665 to 1886810 of Escherichia coli str. K-12 substr. MG1655 (NCBI Accession #NC_000913). The construct was transformed and grown in E. coli BL21(DE3) and the recombinant yeaWX overexpressed by addition of isopropyl β-D-1-thiogalactopyranoside (IPTG).
The bacteria were grown aerobically in 50 mL LB broth (Difco #244620; 10 g/L Tryptone, 5 g/L yeast extract, 10 g/L NaCl, 50 μg/mL kanamycin), in a 500 mL Erlenmeyer flask. The cultures were inoculated from glycerol stock of BL21*DE3::pET30a-Ec yeaWX #1 strain. Strains were cultured all day at 37° C. with 250 rpm shaking. Two 300 mL Minimal M9 Medium (6 g/L Na2HPO4, 3 g/L KH2PO4, 0.5 g/L NaCl, 1 g/L NH4Cl, 0.1 mM CaCl2, 1 mM MgSO4, 0.2% Dextrose, 1 mg/L Thiamine, 50 μg/mL kanamycin), in 1 L Erlenmeyer flasks, were inoculated with 5 mL of the LB broth day culture and cultured overnight at 37° C. with 250 rpm shaking. The overnight cultures were used to inoculate twelve 1 L cultures of Minimal M9 media in 2.8 L fluted Erlenmeyer flasks to an OD 600 nm of 0.05 (typically approximately 28 mLs), which were grown at 37° C. with 250 rpm shaking until an OD600 of approximately 0.4 was reached. Expression of YeaWX was induced with 1 mM IPTG and the induced cultures were further grown overnight at 37° C. with 250 rpm shaking. The biomass was pelleted by centrifugation at 6000×g for 12 minutes at 4° C. The cell pellet was suspended in 240 mL of ice-cold 1× Phosphate Buffered Saline (Ca^2+ and Mg^2+ free). Ninety micrograms of Lysozyme (Sigma #L6876 Lot #SLBG8654V; Sigma-Aldrich Corp., St. Louis, Mo.) was added and incubated with 320 rpm shaking for 30 minutes at 4° C. Lysis was achieved via French press with a 4° C. prechilled 1″ diameter chamber at 1000 psi (high ratio; internal PSI equivalent ˜16000). The lysate was centrifuged at 6,000×g for 12 minutes at 4° C. to pellet extra debris. Glycerol was added to the centrifuged lysate supernatant at a final concentration of 15% A protein concentration of the centrifuged lysate supernatant was determined by a BCA Protein Assay Kit (Pierce #23225), typically in the 2.5 to 4.5 mg/ml range. The centrifuged Ec YeaWX lysate supernatant was aliquoted into 20 mL volumes and stored frozen at −80° C.
Ec YeaWX lysate was diluted to 2.0 mg/mL protein with 1× Dulbecco's phosphate buffered saline (DPBS) plus 15% glycerol. Nicotinamide adenine dinucleotide phosphate (NADPH) was added to 250 μM. […]

Sequence of Ec YeaWX lysate (P0ABR7 whole entry): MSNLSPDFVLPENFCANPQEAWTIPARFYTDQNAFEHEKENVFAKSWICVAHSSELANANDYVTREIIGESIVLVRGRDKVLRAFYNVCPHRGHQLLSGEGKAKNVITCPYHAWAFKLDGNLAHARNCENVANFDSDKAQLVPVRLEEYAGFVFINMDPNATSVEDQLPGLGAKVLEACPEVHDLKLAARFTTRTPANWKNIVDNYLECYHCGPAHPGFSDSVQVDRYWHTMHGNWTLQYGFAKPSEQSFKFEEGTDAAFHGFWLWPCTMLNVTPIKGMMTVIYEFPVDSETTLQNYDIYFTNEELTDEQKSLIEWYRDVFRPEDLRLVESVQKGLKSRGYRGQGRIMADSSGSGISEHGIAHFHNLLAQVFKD

| Structure (SMILES) | IC50 |
| --- | --- |
| CC[N+](C)(CC)CCCN=C=S [Compound 2, 3-Isothiocyanato-N,N-diethyl-N-methylpropanaminium iodide] | 0.0002 mol/L |
| CCOC(=O)C(=O)C[N+](C)(C)CCN=C=S [Compound 5, N-(Ethoxypropyl-2,3-dione)-2-isothiocyanato-N,N-dimethylethan-1-aminium bromide] | 0.00551 mol/L |
| CCOC(=O)C(=O)C[N+](C)(C)CCCN=C=S [Compound 6] | 0.0002 mol/L |
| CC[N+](CC)(CCBr)CCCN=C=S [Compound 7, N-(2-Bromoethyl)-3-isothiocyanato-N,N-diethylpropan-1-aminium triflate] | 0.00017 mol/L |
| CC[N+](CC)(CC#N)CCCN=C=S [Compound 9, N-Cyanomethyl-3-isothiocyanato-N,N-diethylpropan-1-aminium bromide] | 0.0006 mol/L |
